Results taken from patent US20260306502A1, “MITOCHONDRIAL UNCOUPLERS FOR TREATMENT OF METABOLIC DISEASES AND CANCER” (Mito Biopharma, LLC, priority 2022, published 2026).
“Also recorded” adds a separate entry of the source.

What was measured:
[1] = tested on: LX-2 cells (human hepatic stellate cells); assay: Inhibition of TGFβ-induced hepatic stellate cell differentiation into myofibroblast-like cells; assay type: cell-based; conditions: TGFβ 10 ng/ml; for minimal effective concentration: Homo sapiens, LX-2, hepatic stellate cell differentiation to myofibroblast-like cells, 24 hours, read-out: Minimal inhibitory concentration; for inhibition of TGFβ-induced hepatic stellate cell differentiation: in words
Protocol: Liver fibrosis is one hallmark of NASH. […] This process could be modeled in vitro using the hepatic stellate differentiation experiment. The human hepatic stellate LX-2 cells were cultured within DMEM (Dulbecco's Modified Eagle Media, pH 7.4) supplied with 2% fetal bovine serum, 4.5 g/l glucose and 2 mM glutamine to 100 percent confluence. […] Cellular morphology was then examined under a microscope. As shown in FIG. 16 to FIG. 17, hepatic stellate cells could be induced by TGF-beta to differentiate into myofibroblast-like cells.

[2] = tested on: carbon tetrachloride (CCl4)-induced liver fibrosis NASH murine model; assay: CCl4-induced liver fibrosis NASH murine model; assay type: in vivo, mouse; conditions: CCl4 mice
Protocol: CCl4 is a hepatotoxin that induces acute liver injury in mice and induces oxidative damage, inflammation, and liver fibrosis in mice, independent of liver steatosis, and thus is considered as a “pure” fibrotic model.
C57Bl6 male mice at the age of 7-8 weeks were randomized into 3 groups: vehicle, CCl4 alone treatment, CCl4 plus Compound treatment, n=7. CCl4 was diluted in olive oil (1:5 v/v), and intraperitoneally injected at a dose of 750 μl/kg to the mice, twice a week for 6 weeks. Compound treatment started at the beginning of CCl4 injection. At the end of treatment, the mice were euthanized and liver tissue was collected. For histology analyses, the liver tissue was fixed and paraffin embedded; tissue sections were stained with hematoxylin and eosin (H&E), or with Picrosirius red. The fibrosis severities were scored by a board-certified pathologist based on Picrosirius red stain of the liver. For immunoblotting analyses, the liver tissue was homogenized and the proteins were separated by native page gel electrophoresis. The levels of Collagen I and GAPDH were detected by Collagen I polyclonal antibody (Abcam ab34710) and GAPDH (14C10) Rabbit mAb (Cell signaling #2118).

[3] = tested on: NIH3T3; assay: Cell growth inhibition assay (SRB), NIH3T3; assay type: cell-based; conditions: Mus musculus, NIH3T3, 48 h
Protocol: Cell growth inhibition assays were performed using a protocol standardized by National Cancer Institute (NCI) for evaluating anti-cancer drugs. Various mammalian cell lines were used for the assays. Briefly, the cells were inoculated into 96 well microtiter plates. After cell inoculation, the microtiter plates were incubated for cell growth for 24 h prior to the addition of compounds. After 24 h, two plates of each cell line were fixed in situ with TCA, to represent a measurement of the cell population for each cell line at the time of compound addition (Tz). Test compounds were solubilized in dimethyl sulfoxide. At the time of test compound addition, five 10-fold or ½ log serial dilutions were made to provide a total of five test compound concentrations plus control. Aliquots of 100 μl of these different test compound dilutions were added to the appropriate microtiter wells already containing 100 μl of the medium, resulting in the required final test compound concentrations. […] The bound stain was subsequently solubilized with 10 mM trizma base, and the absorbance was read on an automated plate reader at a wavelength of 515 nm. Using the seven absorbance measurements [time zero, (Tz), control growth, (C), and test growth in the presence of a compound at the five concentration levels (Ti)], the percentage growth was calculated at each of the test compound concentrations levels.

[4] = tested on: TGF-β signaling pathway; assay: TGF-β signaling pathway activation (Smad2/3 phosphorylation) in LX-2 cells, immunoblotting; assay type: cell-based, human; conditions: 6 hrs, FIG. 17B
Protocol: Cells were then harvested, and immunoblotting analyses was performed with antibodies against p-Smad2/3 (phosphorylated Smad2/3), Smad2/3, or GAPDH, as indicated.

[5] = tested on: MC38 cells; assay: Anti-cancer effect in combination with a PD-1 inhibitor, MC38 cells transplanted in liver; assay type: in vivo, mouse; conditions: in words
From the text: FIG. 20A is the experimental design (see Example B12). Briefly, C57/Bl6 mice intrahepatically transplanted with MC38 cancer cells (day 0) were subject to various treatments starting on day 7: aPD-1 or isotype, mice were either treated with PD-1 antibody or its isotype antibody (control) by intraperitoneal (IP) injection on indicated days (PD-1 antibody has a half-life of over 1 week in mice); #64 or vehicle, mice were either treated with Compound #64 or vehicle by daily gavage. FIG. 20B is a table depicting outcomes of the experiments described in FIG. 20A and Example B12. aPD-1+#64 represents mice treated with PD-1 antibody (IP) and #64 (daily gavage); aPD-1 represents mice treated with PD-1 antibody (IP) and vehicle (gavage); control, represents mice treated with isotype antibody (IP) and vehicle (gavage); n is number of mice in each group. Tumor-positive is the number of tumor-bearing mice in each group; tumor-free is the number of tumor-free mice in each group; tumor-free % is the percentage of tumor-free animals in each group. […]
The experimental design is illustrated in FIG. 20A. Mouse colon cancer cells, MC38, were transplanted in livers of immune competent B57/Bl6 mice, and the effect of the combinatory treatment was determined. […] Tumor incidence and volume were determined.

[6] = tested on: TGF-β signaling pathway; assay: TGF-β signaling pathway activation (Smad2/3 phosphorylation) in T cells (Jurkat, primary mouse CD8+), immunoblotting; assay type: cell-based, human Jurkat cells and mouse primary T-cells; conditions: Jurkat and mouse primary T-cells, 6 hours, FIG. 19
Protocol: Jurkat cells (a human T-cell cancer cell line) and the primary mouse CD8+ cells (T-cells) were tested. The cells were treated with TGF-β (10 ng/ml) alone, or TGF-β (10 ng/ml) plus compound at various concentrations (e.g. 0.5, 1.0, 2.0 μM), or treated with vehicle (control), for 6 hours. The cells were then harvested, and cell lysates were subjected to immunoblotting analyses with antibodies against Smad2/3, phosphorylated Smad2/3, and GAPDH.

SMILES	minimal effective concentration [1] [µM]	inhibition of TGFβ-induced hepatic stellate cell differentiation [1]	inhibition of TGFβ-induced hepatic stellate cell differentiation ([1]; listed as Compounds 25)	effect on fibrosis formation and fibrosis scores ([2]; 7.5 mg/kg/day, 6 weeks)	effect on collagen levels ([2]; immunoblotting)	GI50 [3] [µM]	effect on TGF-β signaling pathway activation (Smad2/3 phosphorylation) [4]	efficacy in combinatory therapy with PD-1 antibody in treating metastatic cancer in mice [5]	inhibition of TGFβ-induced hepatic stellate cell differentiation ([1]; listed as Compound64)	effect on TGF-β signaling pathway activation in T cells [6]
COCCN(CCOC)Cc1cc(Cl)cc(C(=O)Nc2nc3ccc(C(F)(F)F)cc3s2)c1O [Compound 25, 3-((bis(2-methoxyethyl)amino)methyl)-5-chloro-2-hydroxy-N-(6-(trifluoromethyl)benzo[d]thiazol-2-yl)benzamide]	7.5	effectively inhibit the differentiation process; also recorded: prevents TGFβ-induced differentiation of LX-2 cells	able to directly inhibit hepatic stellate cell (HSC) activation in vitro	reduced fibrosis formation and improved fibrosis scores; also recorded: reduces fibrosis in CCl4 treated animals	reduces collagen levels	> 20				
COCCOCc1cc(C(F)(F)F)cc2sc(NC(=O)c3cc(Cl)cc(CN4C[C@@H](C)O[C@@H](C)C4)c3O)nc12 [Compound 64, 5-chloro-3-((cis-2,6-dimethylmorpholino)methyl)-2-hydroxy-N-(4-((2-methoxyethoxy)methyl)-6-(trifluoromethyl)benzo[d]thiazol-2-yl)benzamide]	1	effectively inhibit the differentiation process; also recorded: able to directly inhibit hepatic stellate cell (HSC) activation in vitro					blocks activation of TGF-β signaling pathway at early stages by inhibiting Smad2/3 phosphorylation	efficacious in combinatory therapy with PD-1 antibody	prevents TGFβ-induced differentiation of LX-2 cells	effectively blocks TGF-β signaling pathway activation in T cells
